Test results from ChEMBL document CHEMBL1144256, “Potent Kv1.3 inhibitors from correolide-modification of the C18 position” (Bioorg Med Chem Lett, 2005).

Target: Potassium voltage-gated channel subfamily A member 3 (Homo sapiens, UniProt P22001)
Experiment: Inhibitory activity against voltage-gated potassium channel subunit Kv1.3
Assay type: functional

Chain of Potassium voltage-gated channel subfamily A member 3 (P22001 whole entry): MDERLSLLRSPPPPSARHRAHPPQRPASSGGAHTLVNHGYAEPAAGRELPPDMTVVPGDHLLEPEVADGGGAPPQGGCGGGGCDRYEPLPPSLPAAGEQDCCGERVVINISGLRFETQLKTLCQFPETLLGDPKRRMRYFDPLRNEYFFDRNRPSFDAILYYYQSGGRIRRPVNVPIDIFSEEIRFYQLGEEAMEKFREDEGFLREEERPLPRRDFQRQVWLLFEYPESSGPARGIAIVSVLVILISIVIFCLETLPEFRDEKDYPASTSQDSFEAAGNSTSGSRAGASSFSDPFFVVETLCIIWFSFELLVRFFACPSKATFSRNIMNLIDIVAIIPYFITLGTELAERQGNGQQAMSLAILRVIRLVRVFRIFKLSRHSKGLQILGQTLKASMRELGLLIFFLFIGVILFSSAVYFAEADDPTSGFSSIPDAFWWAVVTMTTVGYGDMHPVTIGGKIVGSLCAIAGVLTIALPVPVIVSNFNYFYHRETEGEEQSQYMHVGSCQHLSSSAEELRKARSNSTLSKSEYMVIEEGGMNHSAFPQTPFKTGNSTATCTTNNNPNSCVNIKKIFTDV

- IC50: 10 nM
SMILES: C=C1C[C@@]2(O)C3CC[C@]4(C)C([C@H](OC(C)=O)[C@H](OC(C)=O)[C@@]5([C@@H](C)OC(C)=O)COCC=CC45)[C@@]3(C)[C@H](OC(C)=O)[C@H](OC(C)=O)[C@@]2(C)C2(C(=O)OC)O[C@H]12 (stereo partly specified)
